The values below come from patent US7026134B2 (priority 2001, dated 2006).

The structures appear in SMILES notation. In brackets after ≈: the same amount, converted by molar mass. Where two headings read alike, the source gives them in different places.

Test [1] has as its system IgG fraction of the antiserum raised to immunogen B (hapten B-BSA). Type of test: binding, sheep. The following applies: for IC50, OP: concentration of test opiate that causes 50% displacement of signal, Table 3, Example 13 (b); for IC50: standard concentration which produces 50% B/B0.
For test [2], the system named is IgG fraction of the antiserum raised to immunogen A (hapten A-BSA). Type of test: binding, sheep. The settings on record: for IC50, OP: concentration of test opiate that causes 50% displacement of signal, Table 3, Example 13 (a); for IC50: standard concentration which produces 50% B/B0. Here is the method:
Aqueous solutions of the immunogens prepared in Examples 7 and 8 were formulated with Freund's Complete Adjuvant (FCA) to form emulsions consisting of 4 mg/ml immunogen A and 2 mg/ml immunogen B in 50% (v/v) FCA. Three sheep were immunized with each emulsion (1° immunizations), 0.25 ml being subcutaneously injected at each of four sites in the flank of each animal. The next immunizations (first boosts) contained 2 mg/ml immunogen A and 1 mg/ml immunogen B. Subsequent immunizations (boosts […]) contained 1 mg/ml of each immunogen. All boosts were emulsified in 50% (v/v) Freund's Incomplete Adjuvant (FIA) and administered to the appropriate sheep in the same manner as the 1° immunizations, at monthly intervals for 1 year. Blood sampling took place 7 to 14 days after each boost. Each sample was processed to produce antiserum which was further purified by caprylic acid and ammonium sulfate precipitation to yield an immunoglobulin G (IgG) fraction. The IgG fraction was evaluated by competitive ELISA microtiter plate assay, as described in Example 12 below.
(a) The wells of an enhanced binding 96-well polystyrene microtiter plate were coated with the IgG fraction of the antiserum raised to immunogen A (hapten A-BSA) (Example 7), diluted in 10 mM Tris, pH8.5 (125 μl/well). The appropriate antibody coating dilution was determined using standard ELISA chequerboard techniques. The plate was incubated for 2 hours at 37° C., washed 4 times with Tris-buffered saline containing Tween 20 (TBST) and tapped dry. […] 75 μl of conjugate A (hapten A-HRP) (Example 10), diluted in Tris buffer containing EDTA, D-mannitol, sucrose, thimerosal and BSA, was added to each of the wells. The appropriate dilution of conjugate was also determined using standard ELISA chequerboard techniques. The plate was incubated at 37° C. for 2 hours. The excess unbound conjugate was removed by washing 6 times over a 10 minute period with TBST. 125 μl of tetramethylbenzedine (TMB) substrate solution was added to each well of the plate that was then incubated for 15 to 20 minutes in the dark at room temperature. The reaction was terminated by addition of 125 μl 0.2M H2SO4 to each well. The absorbance was then measured at 450 nm using a microtiter plate reader.

[3] abbreviates: percentage cross-reactivity based on specificity to oxycodone, Table 2.
Setting [4] is: standard concentration 10 ng/ml.
[5] abbreviates: standard concentration 50 ng/ml.
Where [6] appears, read: standard concentration 100 ng/ml.
[7] abbreviates: standard concentration 250 ng/ml.
[8] abbreviates: standard concentration 500 ng/ml.
The mark [9] stands for this setting: standard concentration 1000 ng/ml.
[10] abbreviates: standard concentration 2000 ng/ml.
Setting [11] is: percentage cross-reactivity based on specificity to oxycodone, Table 1.
Where [12] appears, read: standard concentration 0.5 ng/ml.
Setting [13] is: standard concentration 25 ng/ml.

On to `COc1ccc2c3c1O[C@H]1[C@@H](O)C=C[C@H]4[C@@H](C2)N(C)CC[C@@]341` [Codeine], for which, in test [1], the “% CR” value is under 2.7% and the “IC50, OP” value was over 2 µg/mL. In test [2], the “% CR” value is 2.2% and the “IC50, OP” value was found to be 0.3867 µg/mL (≈ 1.29 µM).

For `COc1ccc2c3c1O[C@H]1[C@@H](O)CC[C@H]4[C@@H](C2)N(C)CC[C@@]341` [Dihydrocodone], in test [1], the “% CR” value is given as under 2.7% and the “IC50, OP” value was over 2 µg/mL. In test [2], the “% CR” value is given as under 1.7% and the “IC50, OP” value was over 0.5 µg/mL.

In the case of `COc1ccc2c3c1O[C@H]1C(=O)CC[C@H]4[C@@H](C2)N(C)CC[C@]314` [Hydrocodone], in test [1], the “% CR” value was 75.6% and the “IC50, OP” value was determined as 0.0724 µg/mL (≈ 0.242 µM). Also, in test [2], the “% CR” value is given as under 1.7% and the “IC50, OP” value is over 0.5 µg/mL.

Take `CN1CC[C@]23c4c5ccc(O[C@@H]6O[C@H](C(=O)O)[C@@H](O)[C@H](O)[C@H]6O)c4O[C@H]2[C@@H](O)C=C[C@H]3[C@H]1C5` [Morphine-3-glucuronide]: in test [1], the “% CR” value is under 2.7% and the “IC50, OP” value was over 2 µg/mL. Moreover, in test [2], the “% CR” value was under 1.7% and the “IC50, OP” value is over 0.5 µg/mL.

In the case of `CN1CC[C@]23c4c5ccc(O)c4O[C@H]2[C@@H](O)C=C[C@H]3[C@H]1C5` [Morphine], the “% CR” value is given as under 2.7% in test [1] and under 1.7% in test [2].

For orientation: IC50 means the concentration that inhibits the measured activity by half. Low values mean greater potency, high ones weaker potency. `COc1ccc2c3c1O[C@H]1C(=O)CC[C@@]4(O)[C@@H](C2)NCC[C@]314` [Noroxycodone]: the figures for the “% CR” value in test [1] (setting [3]) and in test [2] (setting [11]) were 23.4% and under 1.7%, respectively. Also, the “% B/B0” value in test [1] (setting [4]) is reported as 90.7%; in test [1] (setting [5]), 70.9%; in test [1] (setting [6]), 65.0%; in test [1] (setting [7]), 52.0%; in test [1] (setting [8]) it was 43.7%; in test [1] (setting [9]), 32.5%. Also, the “% B/B0” value was found to be 24.4% in test [1] (setting [10]); 99.3% in test [2] (setting [12]); 100.2% in test [2] (standard concentration 1 ng/ml); 100.3% in test [2] (standard concentration 5 ng/ml); 99.3% in test [2] (setting [13]); 97.7% in test [2] (setting [6]). The “% B/B0” value in test [2] (setting [7]) was 96.1%; in test [2] (setting [8]), 92.8%. Besides, the results for the IC50 in test [1] (Table 2) and in test [2] (Table 1) were 0.2335 µg/mL (≈ 0.775 µM) and over 0.5 µg/mL, respectively.

For `COc1ccc2c3c1O[C@H]1C(=O)CC[C@@]4(O)[C@@H](C2)N(C)CC[C@]314` [Oxycodone], the “% CR” value in test [1] (setting [3]) and in test [2] (setting [11]) was 100.0% each time. Further, the “% B/B0” value in test [1] (setting [4]) stood at 75.7%; in test [1] (setting [5]), 50.1%; in test [1] (setting [6]), 41.9%; in test [1] (setting [8]), 17.8%; in test [1] (setting [9]), 12.2%; in test [1] (setting [10]), 8.3%. Moreover, the “% B/B0” value is recorded as 88.6% in test [2] (setting [12]); 82.2% in test [2] (standard concentration 1 ng/ml); 36.1% in test [2] (setting [13]); 22.2% in test [2] (setting [6]); 14.8% in test [2] (setting [7]); 10.1% in test [2] (setting [8]). In test [2] (Table 1), the IC50 came out at 0.0087 µg/mL (≈ 0.0276 µM).

`CN1CC[C@]23c4c5ccc(O)c4O[C@H]2C(=O)CC[C@@]3(O)[C@H]1C5` [Oxymorphone]: the “% CR” value is listed as under 2.7% in test [1] (setting [3]) and 26.5% in test [2] (setting [11]). Besides, the “% B/B0” value in test [1] (setting [4]) was determined as 103.8%; in test [1] (setting [5]), 97.3%; in test [1] (setting [6]) it was 95.0%; in test [1] (setting [7]), 93.5%; in test [1] (setting [8]), 90.1%; in test [1] (setting [9]), 84.2%. For the same compound, the “% B/B0” value in test [1] (setting [10]) turned out to be 76.7%; in test [2] (setting [12]) it was 93.0%; in test [2] (standard concentration 1 ng/ml) it was 90.5%; in test [2] (standard concentration 5 ng/ml), 75.1%; in test [2] (setting [13]) it was 57.1%; in test [2] (setting [6]) it was 39.2%. In addition, the “% B/B0” value in test [2] (setting [7]) turned out to be 29.2%; in test [2] (setting [8]) it was 24.4%. Besides, the IC50 in test [1] (Table 2) is over 2 µg/mL; in test [2] (Table 1), 0.0328 µg/mL (≈ 0.109 µM).

With `COC1=CC=C2[C@H]3Cc4ccc(OC)c5c4[C@@]2(CCN3C)[C@H]1O5` [Thebaine], in test [1], the “% CR” value is recorded as under 2.7% and the “IC50, OP” value was over 2 µg/mL. Also, in test [2], the “% CR” value amounted to 4.3% and the “IC50, OP” value amounted to 0.2032 µg/mL (≈ 0.653 µM).
